What was measured:
CaNT tumour vasculature = assay: Activity against tumour vasculature measured by fluorescent dye (Hoechst 33342 functional vascular volume); assay type: in vivo; conditions: CaNT tumour-bearing mice, 24 hours after drug treatment
Method: Activity Against Tumour Vasculature Measured by Fluorescent Dye.
Tumour functional vascular volume in CaNT tumour-bearing mice was measured using the fluorescent dye Hoechst 33342 according to the method of Smith et al (Brit J Cancer 57, 247-253, 1988). At least three animals were used in control and treated groups. The fluorescent dye was dissolved in saline at 6.25 mg/ml and injected intravenously at 10 mg/kg 24 hours after drug treatment. One minute later, animals were killed and tumours excised and frozen; 10 μm sections were cut at 3 different levels and observed under UV illumination using an Olympus microscope equipped with epifluorescence. Blood vessels were identified by their fluorescent outlines and vascular volume was quantified using a point scoring system based on that described by Chalkley, (J Natl Cancer Inst, 4, 47-53, 1943). All estimates were based on counting a minimum of 100 fields from sections cut at the 3 different levels. The salts of the invention were more efficacious than their dihydrogen phosphate parent compounds.

CaNT tumours = assay: Induction of tumour necrosis, CaNT tumours; assay type: in vivo, Mice; conditions: tumours excised after 24 h, mean score 1-10, control 2.0
Method: (§1) Induction of Tumour Necrosis
(§2) Mice bearing either CaNT or SaS tumours were treated with the test compound and tumours excised after 24 h, fixed in formalin, embedded in paraffin, sectioned and stained with haematoxylin and eosin. Sections were scored based on the estimated area of necrosis as follows:
(§3) Control tumours had mean scores of 2.0 (CaNT) and 1.0 (SaS). The salts of the invention were more efficacious than their dihydrogen phosphate parent compounds.

SaS tumours = assay: Induction of tumour necrosis, SaS tumours; assay type: in vivo, Mice; conditions: tumours excised after 24 h, mean score 1-10, control 1.0
Method: as §1, §2, §3

Structure (SMILES) | % Reduction in Vascular Volume (CaNT tumour vasculature; dose 100 mg/kg) [%] | Necrosis score (CaNT tumours; dose 100 mg/kg) | Necrosis score (SaS tumours; dose 500 mg/kg) | % Reduction in Vascular Volume (CaNT tumour vasculature; dose 50 mg/kg) [%] | Necrosis score (CaNT tumours; dose 50 mg/kg) | Necrosis score (SaS tumours; dose 100 mg/kg)
COc1cc(/C=C\c2ccc(C)c(OP(=O)(O)O)c2)cc(OC)c1OC [(Z)-2-methyl-5-[2-(3,4-,5-trimethoxyphenyl)ethenyl]phenyl dihydrogen phosphate] | 28 | 5.3 |  |  |  | 
COc1ccc(/C=C\c2cc(OC)c(OC)c(OC)c2)cc1OP(=O)(O)O [Combretastatin A4 phosphate, combretastatin A4 phosphate] | 26 | 5.0 | 1.4 |  |  | 
COc1cc(/C=C\c2ccc(C)c(OP(=O)(O)O)c2)cc(OC)c1OC.NC(=N[N+](=O)[O-])NCCCC(N)C(=O)O [Example 2, (Z)-2-methyl-5-[2-(3,4,5-trimethoxyphenyl)ethenyl]phenyl (1-carboxy-4-N′-nitroguanidinobutylammonium) hydrogen phosphate] |  |  |  | 42 | 8.7 | 7.7
COC(=O)C(N)CCCNC(N)=N[N+](=O)[O-].COc1cc(/C=C\c2ccc(C)c(OP(=O)(O)O)c2)cc(OC)c1OC [Example 5, (Z)-2-methyl-5-[2-(3,4,5-trimethoxyphenyl)ethenyl]phenyl (1-methoxycarbonyl-4-N′-nitroguanidinobutylammonium) hydrogen phosphate] |  |  |  | 86 | 10.0 | 

— patent US7105501B2, “Compositions with vascular damaging activity” (Angiogene Pharmaceuticals Ltd., priority 2000, dated 2006)
